Among the test systems are EKVX NSCLC; HOP-92 NSCLC; HS 578T breast; MCF7 breast; MDA-MB-435; NCI-H23 lung; OVCAR-8 ovarian; SF-295 CNS; SK-MEL-28 melanoma; SK-OV-3 ovarian.
Common to all, as to experiment: NCI tumour cell line growth inhibition, 48 h

Each structure is given as a SMILES string. Several values for one entry are separate records, joined by “and”; a condition that tells them apart may be missing. Identical values can stand only once.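 Test compounds were applied to cells in 96-well plates for 48 hours at 5 doses. Abbreviation: GI50, concentration required for 50% inhibition of growth. TGI: concentration producing complete growth inhibition.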

Regarding `CCN1CCC(O)(/C=C/c2ccc(C(C)C)cc2)C(C(=O)/C=C/c2ccc(C(C)C)cc2)C1` (stereo not drawn), the TGI in the experiment with EKVX NSCLC was determined as 5.74 µM; with HOP-92 NSCLC, 3.69 µM; in the experiment on HS 578T breast, 5.68 µM; in the experiment on MCF7 breast, 14 µM; in the experiment on MDA-MB-435, 8.99 µM; in the experiment with NCI-H23 lung it was 5.88 µM. Also, the TGI amounted to 4.31 µM in the experiment with OVCAR-8 ovarian, 9.36 µM in the experiment on SF-295 CNS, 11.7 µM in the experiment with SK-MEL-28 melanoma and 31.8 µM with SK-OV-3 ovarian.
For the compound `Cc1ccc([N+](=O)[O-])c2c(NCC(O)CO)ccnc12` (stereo not drawn), the TGI in the experiment on EKVX NSCLC, in the experiment on HOP-92 NSCLC, in the experiment with HS 578T breast, in the experiment with MCF7 breast, in the experiment on MDA-MB-435 and with NCI-H23 lung was over 100 µM in each case. The TGI in the experiment on OVCAR-8 ovarian was over 100 µM; in the experiment with SF-295 CNS it was 73.9 µM; in the experiment on SK-MEL-28 melanoma, over 100 µM; in the experiment on SK-OV-3 ovarian it was over 100 µM.
In the case of `COc1ccc(Nc2nc(N)c(C(=O)c3cccs3)s2)cc1`, the TGI with EKVX NSCLC was over 75 µM; in the experiment on HOP-92 NSCLC, 89.3 µM; in the experiment with HS 578T breast it was over 61.9 µM; in the experiment with MCF7 breast it was 24.9 µM; in the experiment on MDA-MB-435, 22.8 µM; with NCI-H23 lung, over 100 µM. Also, the TGI in the experiment with OVCAR-8 ovarian was over 100 µM; in the experiment on SF-295 CNS, over 100 µM; in the experiment on SK-MEL-28 melanoma it was over 95.7 µM; with SK-OV-3 ovarian, over 100 µM.
On to `Oc1ccc(Cl)cc1C1=NC(/N=C\c2ccccc2)=NC(c2ccccc2)C1` (stereo not drawn), for which the TGI in the experiment with EKVX NSCLC, in the experiment on HOP-92 NSCLC, in the experiment on HS 578T breast, in the experiment on MCF7 breast, in the experiment with MDA-MB-435 and in the experiment on NCI-H23 lung was over 100 µM each time. Besides, the TGI was over 100 µM in the experiment on OVCAR-8 ovarian, over 100 µM in the experiment with SF-295 CNS, over 100 µM in the experiment with SK-MEL-28 melanoma and 74.7 µM in the experiment with SK-OV-3 ovarian.
Take `Cc1c(C(=O)O)n2cnnc2c2ccccc12`: the TGI in the experiment on EKVX NSCLC, with HOP-92 NSCLC, in the experiment on HS 578T breast, in the experiment with MCF7 breast, in the experiment on MDA-MB-435 and in the experiment on NCI-H23 lung was over 100 µM in each case. The TGI in the experiment on OVCAR-8 ovarian, with SF-295 CNS, with SK-MEL-28 melanoma and in the experiment on SK-OV-3 ovarian was over 100 µM in each case.
For the compound `O=C(CSc1nc2ccccc2c(=O)n1-c1ccccc1)N=Nc1c(O)[nH]c2ccc(F)cc12`, the TGI is 5.57 µM in the experiment on EKVX NSCLC; 4.17 µM in the experiment on HOP-92 NSCLC; over 100 µM with HS 578T breast; 4.3 µM in the experiment on MCF7 breast; over 100 µM in the experiment on MDA-MB-435; 9.21 µM in the experiment with NCI-H23 lung. The TGI in the experiment on SK-MEL-28 melanoma worked out at 4.54 µM; with SK-OV-3 ovarian, 3.75 µM.
For the compound `COc1ccc(N2NC(c3ccccc3)(c3ccccc3)C(C)C2=O)cc1` (stereo not drawn), the TGI in the experiment on EKVX NSCLC, in the experiment on HOP-92 NSCLC, in the experiment on HS 578T breast, in the experiment on MCF7 breast, in the experiment with MDA-MB-435 and with NCI-H23 lung was over 100 µM each time. In addition, the TGI with OVCAR-8 ovarian, in the experiment with SF-295 CNS and in the experiment with SK-MEL-28 melanoma was over 100 µM each time.
Turning to `C=C1CN(C2=NCCO2)C1`, the TGI in the experiment on EKVX NSCLC, in the experiment on HOP-92 NSCLC, in the experiment with HS 578T breast, with MCF7 breast, with MDA-MB-435 and in the experiment on NCI-H23 lung was over 100 µM each time. Also, the TGI in the experiment with OVCAR-8 ovarian, with SF-295 CNS and in the experiment with SK-MEL-28 melanoma was over 100 µM in each case.
With `CCOC(=O)N1CCC(=C2c3ccc(Cl)cc3CCc3cccnc32)CC1`, the TGI with EKVX NSCLC was 28.1 µM; in the experiment on HOP-92 NSCLC, 24.2 µM; in the experiment on HS 578T breast, over 100 µM; in the experiment on MCF7 breast it was 23.8 µM; in the experiment with MDA-MB-435, 24.9 µM; in the experiment on NCI-H23 lung, 35.6 µM. For the same compound, the TGI in the experiment on OVCAR-8 ovarian was 32.5 µM; in the experiment on SK-MEL-28 melanoma, 20.3 µM; with SK-OV-3 ovarian, 29.1 µM.
As to `Cc1ccc(NC(=O)CSC(N)=O)cc1C`, the TGI in the experiment with EKVX NSCLC, in the experiment with HOP-92 NSCLC, with HS 578T breast, in the experiment with MCF7 breast, in the experiment with MDA-MB-435 and in the experiment on NCI-H23 lung was over 100 µM throughout. Also, the TGI in the experiment with OVCAR-8 ovarian, in the experiment with SF-295 CNS and in the experiment on SK-MEL-28 melanoma was over 100 µM throughout.
`CN(C)/N=N/c1nc[nH]c1C(N)=O`: the GI50 is 94.1 µM and > 134 µM with EKVX NSCLC; 74 µM in the experiment with HOP-92 NSCLC; 154 µM in the experiment on MCF7 breast; 31.4 µM in the experiment on MDA-MB-435; 35.9 µM in the experiment with OVCAR-8 ovarian; 44 µM in the experiment with SF-295 CNS. In addition, the GI50 with SK-MEL-28 melanoma is 595 µM; in the experiment with SK-OV-3 ovarian, 14.2 µM. The TGI in the experiment on EKVX NSCLC was over 169 µM; with HOP-92 NSCLC, 87.1 µM and 796 µM; in the experiment on HS 578T breast, over 1000 µM; in the experiment on MCF7 breast, over 1000 µM; in the experiment with MDA-MB-435, over 1000 µM; with OVCAR-8 ovarian it was over 1000 µM. For the same compound, the TGI is over 1000 µM in the experiment on SF-295 CNS; over 1000 µM in the experiment with SK-MEL-28 melanoma; 88.7 µM and 328 µM with SK-OV-3 ovarian.
On to `NC(N)=NCCCC(NC(=O)OCCCCn1ccc(N)nc1=O)C(=O)O` (stereo not drawn), for which the TGI in the experiment on EKVX NSCLC, in the experiment with HOP-92 NSCLC, in the experiment on HS 578T breast, in the experiment with MCF7 breast, in the experiment on MDA-MB-435 and in the experiment with NCI-H23 lung was over 100 µM throughout. Besides, the TGI in the experiment on SF-295 CNS, with SK-MEL-28 melanoma and in the experiment on SK-OV-3 ovarian was over 100 µM in each case.
Regarding `C=C(c1ccccc1)c1ccccc1-c1cc(-c2ccccc2)cc(-c2ccccc2)n1`, the TGI in the experiment on EKVX NSCLC, with HOP-92 NSCLC, in the experiment with HS 578T breast, in the experiment on MCF7 breast, in the experiment with MDA-MB-435 and in the experiment on NCI-H23 lung was over 100 µM in each case. The TGI with OVCAR-8 ovarian, with SF-295 CNS and with SK-MEL-28 melanoma was over 100 µM each time.
As for `Cn1c(O)c(C=Nc2ccccc2Cl)c(=O)n(C)c1=O`, the TGI in the experiment on EKVX NSCLC, with HOP-92 NSCLC, with HS 578T breast, in the experiment on MCF7 breast, with MDA-MB-435 and in the experiment on NCI-H23 lung was over 100 µM each time. Besides, the TGI with OVCAR-8 ovarian was over 100 µM; in the experiment with SF-295 CNS it was 80.5 µM; with SK-OV-3 ovarian, over 100 µM.

Source of the values: PubChem BioAssay (NCI).
